The target of this assay is Bruton's tyrosine kinase (BTK) (Homo sapiens, UniProt Q06187). In words: radiometric kinase assay, recombinant human kinase. The class given is biochemical.

pIC50: −log10 of the molar value.

As a reminder, the pIC50 is the IC50 on a negative log10 scale, so that one unit is a factor of ten.

Chain of Bruton's tyrosine kinase (BTK) (Q06187 2-659): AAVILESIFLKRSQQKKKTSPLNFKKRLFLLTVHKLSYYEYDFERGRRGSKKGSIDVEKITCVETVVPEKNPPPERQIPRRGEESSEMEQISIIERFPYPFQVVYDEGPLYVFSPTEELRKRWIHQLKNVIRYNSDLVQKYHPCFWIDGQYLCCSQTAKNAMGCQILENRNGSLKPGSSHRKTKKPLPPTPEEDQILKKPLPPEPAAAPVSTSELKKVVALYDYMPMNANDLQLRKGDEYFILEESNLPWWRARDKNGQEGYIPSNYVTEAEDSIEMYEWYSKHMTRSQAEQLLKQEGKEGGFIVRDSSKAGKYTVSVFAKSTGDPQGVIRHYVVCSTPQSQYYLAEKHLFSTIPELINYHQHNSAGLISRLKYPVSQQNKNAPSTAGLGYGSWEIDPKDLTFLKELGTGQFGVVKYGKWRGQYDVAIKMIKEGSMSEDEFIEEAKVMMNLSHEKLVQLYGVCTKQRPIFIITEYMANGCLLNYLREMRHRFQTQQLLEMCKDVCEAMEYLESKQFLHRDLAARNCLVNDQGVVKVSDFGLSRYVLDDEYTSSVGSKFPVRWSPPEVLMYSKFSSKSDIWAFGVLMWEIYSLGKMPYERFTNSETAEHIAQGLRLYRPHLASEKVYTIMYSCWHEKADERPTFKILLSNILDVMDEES

Consider `C=CC(=O)N1CCC[C@@H](c2nn(-c3ccc(Oc4cccc(F)c4F)cc3)c3cncc(F)c23)C1` [JDB175], for which the negative-log IC50 (pIC50) is 8.68.
